Experimental data reported in US20230085307A1, “PYRIDAZINONE COMPOUND AND HERBICIDE” (NISSAN CHEMICAL CORPORATION, priority 2019, published 2023).

What was measured:
barnyard grass [1] = experiment: Test Example 5: herbicidal effect by foliage application, plastic box (Table 20, symbol H); format: in vivo, barnyard grass (Echinochloa crus-galli); conditions: foliage application, 320 g/ha, 3 weeks after application
Outline: (§1)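 Post-emergence foliar test in sterilized diluvial soil. Compound applied as water-diluted emulsion at a predetermined rate to 14-day-old plants; evaluation at three weeks.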

windgrass [2] = experiment: Test Example 4: herbicidal effect by soil treatment (Table 19, symbol L); format: in vivo, windgrass (Apera spica-venti); conditions: 320 g/ha
Outline: (§2)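 Scoring uses the grading scale of an earlier test, three weeks post-application. Treatment consists of spraying a diluted emulsion formulation across the surface of sterilized diluvial soil in which seeds are buried near 1.5 cm deep; boxes are kept in a greenhouse between 25° C. and 30° C.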

blackgrass [3] = experiment: Test Example 5: herbicidal effect by foliage application, plastic box (Table 20, symbol J); format: in vivo, blackgrass (Alopecurus myosuroides); conditions: foliage application, 320 g/ha, 3 weeks after application
Outline: as §1

green foxtail [4] = experiment: Test Example 4: herbicidal effect by soil treatment (Table 19, symbol G); format: in vivo, green foxtail (Setaria viridis); conditions: 320 g/ha
Outline: as §2

Italian ryegrass [5] = experiment: Test Example 4: herbicidal effect by soil treatment (Table 19, symbol K); format: in vivo, Italian ryegrass (Lolium multiflorum); conditions: 320 g/ha
Outline: as §2

velvetleaf [6] = experiment: Test Example 4: herbicidal effect by soil treatment (Table 19, symbol M); format: in vivo, velvetleaf (Abutilon theophrasti); conditions: 320 g/ha
Outline: as §2

lambsquarters [7] = experiment: Test Example 4: herbicidal effect by soil treatment (Table 19, symbol O); format: in vivo, lambsquarters (Chenopodium album); conditions: 320 g/ha
Outline: as §2

wild oat [8] = experiment: Test Example 5: herbicidal effect by foliage application, plastic box (Table 20, symbol I); format: in vivo, wild oat (Avena fatua); conditions: foliage application, 320 g/ha, 3 weeks after application
Outline: as §1

late watergrass = experiment: Test Example 1: herbicidal activity, application before weed generation under submerged conditions (Table 16, symbol A); format: in vivo, late watergrass (Echinochloa oryzicola); conditions: 320 g/ha applied herbicide
Outline: (§3)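 Emulsion formulation, water-diluted to set dose, was put onto the flooded surface (4 cm depth, alluvial soil) the same day weeds were sown and 2.5-leaf rice transplanted. After 3 weeks at 25-30 °C under glass, each species was rated 0 (≤5% kill) to 5 (≥90% kill).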

windgrass [9] = experiment: Test Example 5: herbicidal effect by foliage application, plastic box (Table 20, symbol L); format: in vivo, windgrass (Apera spica-venti); conditions: foliage application, 320 g/ha, 3 weeks after application
Outline: as §1

southern crabgrass [10] = experiment: Test Example 5: herbicidal effect by foliage application, plastic box (Table 20, symbol F); format: in vivo, southern crabgrass (Digitaria ciliaris); conditions: foliage application, 320 g/ha, 3 weeks after application
Outline: as §1

persian speedwell [11] = experiment: Test Example 5: herbicidal effect by foliage application, plastic box (Table 20, symbol R); format: in vivo, Persian speedwell (Veronica persica); conditions: foliage application, 320 g/ha, 3 weeks after application
Outline: as §1

chickweed = experiment: Test Example 4: herbicidal effect by soil treatment (Table 19, symbol P); format: in vivo, common chickweed (Stellaria media); conditions: 320 g/ha
Outline: as §2

redroot pigweed = experiment: Test Example 4: herbicidal effect by soil treatment (Table 19, symbol N); format: in vivo, redroot pigweed (Amaranthus retroflexus); conditions: 320 g/ha
Outline: as §2

Japanese bulrush = experiment: Test Example 1: herbicidal activity, application before weed generation under submerged conditions (Table 16, symbol B); format: in vivo, Japanese bulrush (Schoenoplectus juncoides); conditions: 320 g/ha applied herbicide
Outline: as §3

southern crabgrass [12] = experiment: Test Example 4: herbicidal effect by soil treatment (Table 19, symbol F); format: in vivo, southern crabgrass (Digitaria ciliaris); conditions: 320 g/ha
Outline: as §2

wild oat [13] = experiment: Test Example 4: herbicidal effect by soil treatment (Table 19, symbol I); format: in vivo, wild oat (Avena fatua); conditions: 320 g/ha
Outline: as §2

Italian ryegrass [14] = experiment: Test Example 5: herbicidal effect by foliage application, plastic box (Table 20, symbol K); format: in vivo, Italian ryegrass (Lolium multiflorum); conditions: foliage application, 320 g/ha, 3 weeks after application
Outline: as §1

green foxtail [15] = experiment: Test Example 5: herbicidal effect by foliage application, plastic box (Table 20, symbol G); format: in vivo, green foxtail (Setaria viridis); conditions: foliage application, 320 g/ha, 3 weeks after application
Outline: as §1

barnyard grass [16] = experiment: Test Example 4: herbicidal effect by soil treatment (Table 19, symbol H); format: in vivo, barnyard grass (Echinochloa crus-galli); conditions: 320 g/ha
Outline: as §2

blackgrass [17] = experiment: Test Example 4: herbicidal effect by soil treatment (Table 19, symbol J); format: in vivo, blackgrass (Alopecurus myosuroides); conditions: 320 g/ha
Outline: as §2

lambsquarters [18] = experiment: Test Example 5: herbicidal effect by foliage application, plastic box (Table 20, symbol O); format: in vivo, lambsquarters (Chenopodium album); conditions: foliage application, 320 g/ha, 3 weeks after application
Outline: as §1

oval-leafed pondweed = experiment: Test Example 1: herbicidal activity, application before weed generation under submerged conditions (Table 16, symbol C); format: in vivo, oval-leafed pondweed (Monochoria vaginalis); conditions: 320 g/ha applied herbicide
Outline: as §3

persian speedwell [19] = experiment: Test Example 4: herbicidal effect by soil treatment (Table 19, symbol R); format: in vivo, Persian speedwell (Veronica persica); conditions: 320 g/ha
Outline: as §2

velvetleaf [20] = experiment: Test Example 5: herbicidal effect by foliage application, plastic box (Table 20, symbol M); format: in vivo, velvetleaf (Abutilon theophrasti); conditions: foliage application, 320 g/ha, 3 weeks after application
Outline: as §1

barnyard grass [21] = experiment: Test Example 3: herbicidal effect by foliage application, Wagner pot (Table 18, symbol H); format: in vivo, barnyard grass (Echinochloa crus-galli); conditions: 320 g/ha
Outline: (§4)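 Plants were sown in alluvial soil held under 0.1–0.5 cm standing water and grown 14 days in a greenhouse at 25–30 °C. An emulsifiable formulation, water-diluted to the set dose, was then sprayed onto the foliage, and effects were scored three weeks later using previously defined criteria.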

Chinese sprangletop = experiment: Test Example 3: herbicidal effect by foliage application, Wagner pot (Table 18, symbol D); format: in vivo, chinese sprangletop (Leptochloa chinensis); conditions: 320 g/ha
Outline: as §4

rice flat sedge = experiment: Test Example 3: herbicidal effect by foliage application, Wagner pot (Table 18, symbol E); format: in vivo, rice flat sedge (Cyperus iria); conditions: 320 g/ha
Outline: as §4

Structure (SMILES) | effect on barnyard grass (H) (barnyard grass [1]) | herbicidal effect rating, L: windgrass (windgrass [2]) | effect on blackgrass (J) (blackgrass [3]) | herbicidal effect rating, G: green foxtail (green foxtail [4]) | herbicidal effect rating, K: Italian ryegrass (Italian ryegrass [5]) | herbicidal effect rating, M: velvetleaf (velvetleaf [6]) | herbicidal effect rating, O: lambsquarters (lambsquarters [7]) | effect on wild oat (I) (wild oat [8]) | Herbicidal effect on A: late watergrass (grade 0-5) (late watergrass) | effect on windgrass (L) (windgrass [9]) | effect on southern crabgrass (F) (southern crabgrass [10]) | effect on persian speedwell (R) (persian speedwell [11]) | herbicidal effect rating, P: chickweed (chickweed) | herbicidal effect rating, N: redroot pigweed (redroot pigweed) | Herbicidal effect on B: Japanese bulrush (grade 0-5) (Japanese bulrush) | herbicidal effect rating, F: southern crabgrass (southern crabgrass [12]) | herbicidal effect rating, I: wild oat (wild oat [13]) | effect on Italian ryegrass (K) (Italian ryegrass [14]) | effect on green foxtail (G) (green foxtail [15]) | herbicidal effect rating, H: barnyard grass (barnyard grass [16]) | further results
CCCC(=O)Oc1c(C)nn(C)c(=O)c1-c1c(-c2ccc(C(C)(C)C)cc2)sc2ccc(F)cc12 [2-017] | 3 (Herbicidal rate of 40% or more and less than 70%) | 0 (Herbicidal rate of 5% or less (almost no effect)) | 0 (Herbicidal rate of 5% or less (almost no effect)) | 1 (Herbicidal rate of 5% or more and less than 20%) | 0 (Herbicidal rate of 5% or less (almost no effect)) | 0 (Herbicidal rate of 5% or less (almost no effect)) | 2 (Herbicidal rate of 20% or more and less than 40%) | 0 (Herbicidal rate of 5% or less (almost no effect)) | 2 (Herbicidal rate of 20% or more and less than 40%) | 0 (Herbicidal rate of 5% or less (almost no effect)) | 0 (Herbicidal rate of 5% or less (almost no effect)) | 3 (Herbicidal rate of 40% or more and less than 70%) | 0 (Herbicidal rate of 5% or less (almost no effect)) | 4 (Herbicidal rate of 70% or more and less than 90%) | 0 (Herbicidal rate of 5% or less (almost no effect)) | 0 (Herbicidal rate of 5% or less (almost no effect)) | 0 (Herbicidal rate of 5% or less (almost no effect)) | 0 (Herbicidal rate of 5% or less (almost no effect)) | 1 (Herbicidal rate of 5% or more and less than 20%) | 2 (Herbicidal rate of 20% or more and less than 40%) | herbicidal effect rating, J: blackgrass (blackgrass [17]): 0 (Herbicidal rate of 5% or less (almost no effect)); effect on lambsquarters (O) (lambsquarters [18]): 1 (Herbicidal rate of 5% or more and less than 20%); Herbicidal effect on C: oval-leafed pondweed (grade 0-5) (oval-leafed pondweed): 0 (Herbicidal rate of 5% or less (almost no effect)); herbicidal effect rating, R: persian speedwell (persian speedwell [19]): 0 (Herbicidal rate of 5% or less (almost no effect)); effect on velvetleaf (M) (velvetleaf [20]): 1 (Herbicidal rate of 5% or more and less than 20%); herbicidal effect on H (barnyard grass), rating 0-5 (barnyard grass [21]): 5 (Herbicidal rate of 90% or more (almost completely withered)); herbicidal effect on D (Chinese sprangletop), rating 0-5 (Chinese sprangletop): 3 (Herbicidal rate of 40% or more and less than 70%); herbicidal effect on E (rice flat sedge), rating 0-5 (rice flat sedge): 2 (Herbicidal rate of 20% or more and less than 40%)
Cc1nn(C)c(=O)c(-c2c(-c3ccc(C(F)(F)F)cc3)sc3ccc(F)cc23)c1O [2-020] | 5 (Herbicidal rate of 90% or more (almost completely withered)) | 5 (Herbicidal rate of 90% or more (almost completely withered)) | 3 (Herbicidal rate of 40% or more and less than 70%) | 4 (Herbicidal rate of 70% or more and less than 90%) | 5 (Herbicidal rate of 90% or more (almost completely withered)) | 3 (Herbicidal rate of 40% or more and less than 70%) | 5 (Herbicidal rate of 90% or more (almost completely withered)) | 4 (Herbicidal rate of 70% or more and less than 90%) | 0 (Herbicidal rate of 5% or less (almost no effect)) | 5 (Herbicidal rate of 90% or more (almost completely withered)) | 5 (Herbicidal rate of 90% or more (almost completely withered)) | 5 (Herbicidal rate of 90% or more (almost completely withered)) | 3 (Herbicidal rate of 40% or more and less than 70%) | 5 (Herbicidal rate of 90% or more (almost completely withered)) | 2 (Herbicidal rate of 20% or more and less than 40%) | 3 (Herbicidal rate of 40% or more and less than 70%) | 0 (Herbicidal rate of 5% or less (almost no effect)) | 5 (Herbicidal rate of 90% or more (almost completely withered)) | 5 (Herbicidal rate of 90% or more (almost completely withered)) | 2 (Herbicidal rate of 20% or more and less than 40%) | herbicidal effect rating, J: blackgrass (blackgrass [17]): 3 (Herbicidal rate of 40% or more and less than 70%); effect on lambsquarters (O) (lambsquarters [18]): 5 (Herbicidal rate of 90% or more (almost completely withered)); Herbicidal effect on C: oval-leafed pondweed (grade 0-5) (oval-leafed pondweed): 0 (Herbicidal rate of 5% or less (almost no effect)); herbicidal effect rating, R: persian speedwell (persian speedwell [19]): 5 (Herbicidal rate of 90% or more (almost completely withered)); effect on velvetleaf (M) (velvetleaf [20]): 5 (Herbicidal rate of 90% or more (almost completely withered)); herbicidal effect on H (barnyard grass), rating 0-5 (barnyard grass [21]): 5 (Herbicidal rate of 90% or more (almost completely withered)); herbicidal effect on D (Chinese sprangletop), rating 0-5 (Chinese sprangletop): 3 (Herbicidal rate of 40% or more and less than 70%); herbicidal effect on E (rice flat sedge), rating 0-5 (rice flat sedge): 5 (Herbicidal rate of 90% or more (almost completely withered))
